Data as given in ChEMBL document CHEMBL1158441 (Bioorg Med Chem Lett, 2009).

How the values were obtained:
Sphingosine kinase 2 = biological target: T1, Sphingosine kinase 2 (Homo sapiens, UniProt Q9NRA0); assay: Inhibition of SphK2
T1 sequence (Q9NRA0 whole entry): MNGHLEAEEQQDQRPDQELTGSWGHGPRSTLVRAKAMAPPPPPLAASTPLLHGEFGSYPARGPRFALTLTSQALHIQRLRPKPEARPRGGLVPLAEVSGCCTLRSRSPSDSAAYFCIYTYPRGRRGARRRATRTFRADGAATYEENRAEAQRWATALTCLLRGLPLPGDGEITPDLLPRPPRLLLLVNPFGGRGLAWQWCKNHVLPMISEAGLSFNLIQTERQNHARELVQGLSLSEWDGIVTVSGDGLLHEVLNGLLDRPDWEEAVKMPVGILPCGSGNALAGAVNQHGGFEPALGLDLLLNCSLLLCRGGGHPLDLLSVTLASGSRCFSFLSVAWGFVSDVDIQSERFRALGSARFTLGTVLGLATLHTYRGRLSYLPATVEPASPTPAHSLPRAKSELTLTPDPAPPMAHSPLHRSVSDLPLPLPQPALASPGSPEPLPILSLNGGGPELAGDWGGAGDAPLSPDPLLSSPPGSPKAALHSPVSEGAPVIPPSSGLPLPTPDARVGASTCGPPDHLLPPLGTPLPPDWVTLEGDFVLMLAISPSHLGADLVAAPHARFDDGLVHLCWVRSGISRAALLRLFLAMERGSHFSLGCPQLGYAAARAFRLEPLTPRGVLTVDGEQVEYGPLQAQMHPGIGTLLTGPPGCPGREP

Sphingosine kinase 1 = Sphingosine kinase 1 (Homo sapiens, UniProt Q9NYA1); assay: Inhibition of SphK1
Sequence of Sphingosine kinase 1 (Q9NYA1 whole entry): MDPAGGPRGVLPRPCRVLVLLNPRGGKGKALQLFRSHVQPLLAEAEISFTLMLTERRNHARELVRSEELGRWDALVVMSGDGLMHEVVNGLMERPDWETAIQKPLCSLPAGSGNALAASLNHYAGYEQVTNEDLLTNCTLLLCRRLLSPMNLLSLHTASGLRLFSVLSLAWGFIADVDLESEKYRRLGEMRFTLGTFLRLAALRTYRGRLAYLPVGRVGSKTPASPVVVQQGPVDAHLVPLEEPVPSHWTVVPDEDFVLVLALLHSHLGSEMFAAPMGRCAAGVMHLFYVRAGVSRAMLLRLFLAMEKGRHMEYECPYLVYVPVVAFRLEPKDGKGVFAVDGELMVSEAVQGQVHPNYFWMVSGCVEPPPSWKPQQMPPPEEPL

| SMILES | IC50 (Sphingosine kinase 2) [µM] | IC50 (Sphingosine kinase 1) [µM] |
| --- | --- | --- |
| N[C@@H](CO)[C@H](O)/C=C/CCCCCCCCCCc1ccc(I)cc1 | 4.38 | 2.19 |
| N[C@@H](CO)[C@H](O)/C=C/CCCCCCCCCCCCCc1ccc(I)cc1 | 29.2 | 3.98 |
| CCCCCCCCCCCCC/C=C/[C@@H](O)[C@@H](N)CO [SPHINGOSINE] | 1.56 | – |

Further lines, results first:

| IC50 (Sphingosine kinase 2) [µM] | IC50 (Sphingosine kinase 1) [µM] | SMILES |
| --- | --- | --- |
| > 80 | – | CCCCCCCCCCCCC/C=C/[C@@H](O)[C@H](CO)N(C)C [DIMETHYLSPINGOSINE] |
| 7.23 | 3.96 | N[C@@H](CO)[C@H](O)/C=C/CCCCCCc1ccc(I)cc1 |
| 13.3 | 2.25 | N[C@@H](CO)[C@H](O)/C=C/CCCCCCCCCCCc1ccc(I)cc1 |
| 5.73 | 0.5 | N[C@@H](CO)[C@H](O)/C=C/CCCCCCCCc1ccc(I)cc1 |
| 16.6 | 2.78 | N[C@@H](CO)[C@H](O)/C=C/CCCCCCCCCc1ccc(I)cc1 |
